The record followed here is article PMC6530361, “Anti-tumor Efficacy Assessment of the Sigma Receptor Pan Modulator RC-106. A Promising Therapeutic Tool for Pancreatic Cancer” (Frontiers in Pharmacology, 2019).

Type in all cases: cell-based
For assay [1], the system named is Panc-1. The assay can be described thus: TUNEL assay. Particulars: Panc-1, RC-106 50 μM, 48 h. As to the method: (§1) TUNEL assay was performed as previously described ([Tesei et al., 2007]). Briefly, cells were fixed in 1% formaldehyde in PBS on ice for 15 min, suspended in 70% ice cold ethanol and stored overnight at […]. Cells were then washed twice in PBS and re-suspended in PBS containing 0.1% Triton X-100 for 5 min at […]. Thereafter, samples were incubated in 50 μL of solution containing TdT and FITC conjugated dUTP deoxynucleotides 1:1 (Roche Diagnostic GmbH, Mannheim, Germany) in a humidified atmosphere for 90 min at 37°C in the dark, washed in PBS, counterstained with propidium iodide (2.5 μg/mL, MP Biomedicals, Verona, Italy) and RNAse (10 kU/mL, Sigma–Aldrich) for 30 min at […] in the dark and analyzed by flow cytometry. Flow cytometric analysis was performed using a FACS Canto flow cytometer (Becton Dickinson, San Diego, CA, United States). Data acquisition and analysis were performed using FACSDiva software (Becton Dickinson). Samples were run in triplicate and 10,000 events were collected for each replicate.

In assay [2] the test system is Capan-1. The assay can be described thus: TUNEL assay. The following applies: Capan-1, RC-106 50 μM, 48 h. As to the method:
as §1

In assay [3] the test system is Panc-1. Description: Migration scratch wound healing assay. Particulars: Panc-1, 60 μM, all considered time points (24, 48, 72 h). The protocol: (§2) Cells were seeded in a 6-well plate and were incubated at 37°C until confluence of 90–100% was reached. Culture medium was then replaced by serum free medium. After 24 h, a scratch was made on cell monolayer using a plastic tip and wells were washed 2 times with PBS to remove detached cells and debris. Culture medium, with or without RC-106, was added to each well. Micrographs of the scratches were taken at 0 h, immediately after the scratch, and at 24, 48, and 72 h. Cell migration area was quantified using IMAGEJ software.

The subject of assay [4] is Capan-1. The assay can be described thus: Migration scratch wound healing assay. The protocol:
as §2

Assay [5] relates to Capan-2. Description: Migration scratch wound healing assay. The following applies: Capan-2, 20 and 40 μM, after 48 and 72 h. As to the method:
as §2

For assay [6], the system named is Capan-2. Description: Real-Time qRT-PCR of ER stress/UPR marker genes. Particulars: Capan-2, RC-106 50 μM, higher than untreated cells. The protocol: Total cellular RNA was extracted using TRIzol reagent (Life technologies) in accordance with manufacturer’s instruction and quantified using the Nanodrop MD-1000 spectrophotometer system. Reverse transcription reactions were performed in 20 μL of nuclease free water containing 400 ng of total RNA using iScript cDNA Synthesis kit (Bio-Rad Laboratories, Hercules, CA). Real-Time PCR was run using 7500 Fast Real-Time PCR system (Applied Biosystems) and TaqMan assays to detect the expression of SIGMAR1, TMEM97, GRP78/BiP, ATF4, and CHOP genes.
Reactions were carried out in triplicate at a final volume of 20 μL containing 40 ng of cDNA template, TaqMan universal PCR Master Mix (2X), and selected TaqMan assays (20X). Samples were maintained at 50°C for 2 min, then at 95°C for 10 min followed by 40 amplification cycles at 95°C for 15 s, and at 60°C for 30 s.
The amount of mRNA was normalized to the endogenous genes GAPDH and HPRT-1.

The test system of a further assay is Panc-1 spheroids. The assay can be described thus: CellTiter-Glo 3D cell viability assay. The following applies: Homo sapiens, PANC-1, 48 h, 3D spheroids, diameter up to 600 μm, 12.5–50 μM. The protocol:
Spheroids were obtained as previously described ([Zanoni et al., 2016]). Briefly, a rotatory cell culture system RCCS (Synthecon Inc., Houston, TX, United States) was used. The rotary systems were placed inside a humidified 37°C, 5% CO2 incubator and all procedures were performed in sterile conditions. Single cell suspensions of about 1 × 10^6 cells/ml of Panc-1 were placed in the 50 mL rotating chamber at an initial speed of 12 rpm. Speed was increased as cells formed aggregates to avoid sedimentation. The culture medium was changed every 4 days and tumor spheroids with an equivalent diameter ranging from about 500–1300 μm were obtained in around 15 days. After formation, spheroids were transferred into a 96-well low-attachment culture plates (Corning Inc., Corning, NY, United States; one spheroid/well), containing 100 μL of fresh culture medium per well.
Cell viability of Panc-1 spheroids was measured using a 3D cell viability assay (Promega, Milan, Italy). Briefly, homogeneous spheroids were removed from the 96-well low-attachment culture plate and placed separately in single wells of a 96-well opaque culture plate (BD Falcon). CellTiter-Glo® 3D reagent was added to each well and the luminescence signal was read after 30 min with the GloMax® bioluminescent reader (Promega).
The analysis of morphological parameters were performed as previously described ([Piccinini et al., 2017]). […]

For the compound `C/C(=C\CN1CCC(Cc2ccccc2)CC1)c1ccc2ccccc2c1` [RC-106, (E)-4-benzyl-1-(3-(naphthalen-2-yl)but-2-en-1-yl)piperidine], the “percentage of apoptotic cells” value is on record as 53.25% with Panc-1 [1] and 78.55% in the assay with Capan-1 [2]. For the same compound, the cell migration result in the assay with Panc-1 [3] is “significatively reduced”; in the assay on Capan-1 [4] (Capan-1, 20 μM, after 48 h), “significantly reduced”; with Capan-1 [4] (Capan-1, 40 and 60 μM, after 24 h) it was “reduced cell migration”; in the assay with Capan-2 [5] it was “significatively reduceded”. For the same compound, in the assay with Capan-2 [6], the “increase in expression of CHOP mRNA” value worked out at 70 fold. Moreover, inhibition in the assay with Panc-1 spheroids was half-maximal at 39.6 µM (IC50).
